The target of the test is T1, LRRK2 (G2019S) (Homo sapiens, UniProt Q5S007, G2019S).
T1 construct: Recombinant GST-LRRK2 (delta970), purified from baculovirus infected insect cells (SF9); GST (N); host or cells: baculovirus infected insect cells (SF9)
The experiment in a line: LRRK2 inhibition, radiometric kinase assay with recombinant GST-LRRK2 (delta970) and peptide substrate. Format: biochemical. The conditions noted are these: GST-LRRK2 (delta970) G2019S 30 nM, ATP ~52 μM (Km), 30 min at 30° C. The method, then:
Compounds were assessed for inhibition of LRRK2 inhibition using the following procedure.
Recombinant GST-LRRK2 (delta970), purified from baculovirus infected insect cells (SF9), at least 90% pure and either wild-type sequence or bearing the pathogenic G2019S mutation, was combined into a kinase buffer at 30 nM concentration. Kinase buffer consists of 50 mM Tris HCl pH 7.4, 1 mM EDTA, and 50 μM peptide substrate (amino acid sequence […]). Experimental compounds or control (no compound) were added at desired concentrations in DMSO and water, where final concentration of DMSO in kinase reactions was 0.1% for all drug concentrations. Activation buffer that consists of a final concentration in the reactions of 10 mM MgCl2 and ATP (˜92 μM for WT-LRRK2 reactions and ˜52 μM for G2019S-LRRK2, which represent respective Km ATP concentrations) were added to each reaction, in addition to 0.5 μCi of gamma-32-P-dATP per reaction. Reactions were incubated at 1400 RPM at 30° C. for 30 min. and then spotted in triplicate directly onto a slot-blot apparatus fitted with phospho-cellulose paper and allowed to dry. Each slot was then washed with 10 mM phosphoric acid buffer until beta-radiation could not be detected in eluted wash buffer, usually ˜1 mL per slot. Paper within each slot were excised and radiation measured by liquid scintillation.

Molecules are shown by their SMILES.

T1 sequence (Q5S007 970-2527 G2019S limits assumed): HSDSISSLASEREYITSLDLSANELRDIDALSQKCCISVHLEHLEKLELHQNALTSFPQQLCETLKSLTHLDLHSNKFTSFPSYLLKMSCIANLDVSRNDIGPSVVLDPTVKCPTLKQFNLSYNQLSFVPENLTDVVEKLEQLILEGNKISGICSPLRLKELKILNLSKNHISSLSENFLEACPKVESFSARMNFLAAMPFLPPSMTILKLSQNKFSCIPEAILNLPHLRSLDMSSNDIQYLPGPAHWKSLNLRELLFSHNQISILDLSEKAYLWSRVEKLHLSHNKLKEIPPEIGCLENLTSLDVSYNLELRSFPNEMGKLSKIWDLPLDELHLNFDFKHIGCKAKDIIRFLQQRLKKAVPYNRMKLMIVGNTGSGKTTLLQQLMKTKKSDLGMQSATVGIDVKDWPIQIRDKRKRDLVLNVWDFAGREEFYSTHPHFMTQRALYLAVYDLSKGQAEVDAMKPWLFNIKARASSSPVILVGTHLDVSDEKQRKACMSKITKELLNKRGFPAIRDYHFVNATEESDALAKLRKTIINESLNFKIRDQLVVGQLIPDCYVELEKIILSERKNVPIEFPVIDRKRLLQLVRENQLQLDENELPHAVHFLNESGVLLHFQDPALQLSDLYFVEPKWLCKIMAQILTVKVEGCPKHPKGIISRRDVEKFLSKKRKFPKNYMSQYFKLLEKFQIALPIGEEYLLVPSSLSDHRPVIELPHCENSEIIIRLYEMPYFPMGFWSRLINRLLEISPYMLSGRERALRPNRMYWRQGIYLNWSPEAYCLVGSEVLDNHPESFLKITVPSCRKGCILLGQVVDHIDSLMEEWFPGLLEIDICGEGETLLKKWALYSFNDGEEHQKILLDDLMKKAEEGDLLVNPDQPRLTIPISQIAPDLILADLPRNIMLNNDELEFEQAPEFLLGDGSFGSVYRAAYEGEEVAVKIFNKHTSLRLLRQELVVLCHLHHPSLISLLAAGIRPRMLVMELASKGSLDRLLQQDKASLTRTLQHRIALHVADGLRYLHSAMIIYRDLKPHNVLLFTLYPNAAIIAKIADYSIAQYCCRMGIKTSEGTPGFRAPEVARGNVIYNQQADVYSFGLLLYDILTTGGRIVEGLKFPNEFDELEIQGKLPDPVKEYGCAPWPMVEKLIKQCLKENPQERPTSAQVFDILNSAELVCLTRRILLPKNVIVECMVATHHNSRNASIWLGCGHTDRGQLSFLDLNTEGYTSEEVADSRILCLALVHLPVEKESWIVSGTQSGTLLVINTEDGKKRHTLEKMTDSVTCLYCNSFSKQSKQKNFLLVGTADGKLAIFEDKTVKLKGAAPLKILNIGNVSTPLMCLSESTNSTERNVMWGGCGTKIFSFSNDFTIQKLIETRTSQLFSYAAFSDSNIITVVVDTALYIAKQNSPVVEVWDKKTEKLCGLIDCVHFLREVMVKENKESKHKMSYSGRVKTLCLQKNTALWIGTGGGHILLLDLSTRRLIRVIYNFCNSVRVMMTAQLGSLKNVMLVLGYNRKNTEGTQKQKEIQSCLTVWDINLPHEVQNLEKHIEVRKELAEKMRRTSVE

Broadly, the IC50 is the concentration that gives 50% inhibition. As to `O=C(O)CSc1ccc2nnc(-c3nccs3)n2n1` [Example 42, 2-((3-(thiazol-2-yl)-[1,2,4]triazolo[4,3-b]pyridazin-6-yl)thio)acetic acid], the IC50 is not below 5000 nM.
As for `O=C(CSc1ccc2nnc(-c3ccc(F)cc3)n2n1)Nc1nccs1` [Example 43, 2-((3-(4-fluorophenyl)-[1,2,4]triazolo[4,3-b]pyridazin-6-yl)thio)-N-(thiazol-2-yl)acetamide], the IC50 is not below 5000 nM.
The same measure for `CCC(Sc1ccc2nnc(-c3cccs3)n2n1)C(=O)N1CCCC1` (stereo not drawn) [Example 46, 1-(pyrrolidin-1-yl)-2-((3-(thiophen-2-yl)-[1,2,4]triazolo[4,3-b]pyridazin-6-yl)thio)butan-1-one]: less than 100 nM.
The same measure for `CCC(Sc1ccc2nnc(-c3cccs3)n2n1)C(=O)N1CCOCC1` (stereo not drawn) [Example 47, 1-morpholino-2-((3-(thiophen-2-yl)-[1,2,4]triazolo[4,3-b]pyridazin-6-yl)thio)butan-1-one]: 100 to 1000 nM; for `CCC(Sc1ccc2nnc(-c3cccs3)n2n1)C(=O)NCc1cccs1` (stereo not drawn) [Example 48, 2-((3-(thiophen-2-yl)-[1,2,4]triazolo[4,3-b]pyridazin-6-yl)thio)-N-(thiophen-2-ylmethyl)butanamide]: 100 to 1000 nM; for `Cc1ccc(-c2nnc3ccc(SCC(N)=O)nn23)s1` [Example 49, 2-((3-(5-methylthiophen-2-yl)-[1,2,4]triazolo[4,3-b]pyridazin-6-yl)thio)acetamide]: 100 to 1000 nM.
Next, `CCC(Sc1ccc2nnc(-c3cccs3)n2n1)C(=O)N1CCCCCC1` (stereo not drawn) [Example 50, 1-(azepan-1-yl)-2-((3-(thiophen-2-yl)-[1,2,4]triazolo[4,3-b]pyridazin-6-yl)thio)butan-1-one]: not below 5000 nM.
For `CCC(Sc1ccc2nnc(-c3cccs3)n2n1)C(=O)N1CCCC(C)C1` (stereo not drawn) [Example 51, 1-(3-methylpiperidin-1-yl)-2-((3-(thiophen-2-yl)-[1,2,4]triazolo[4,3-b]pyridazin-6-yl)thio)butan-1-one], the IC50 is 100 to 1000 nM.
Take `CCC(Sc1ccc2nnc(-c3cccs3)n2n1)C(=O)NC1CCCCC1` (stereo not drawn) [Example 52, N-cyclohexyl-2-((3-(thiophen-2-yl)-[1,2,4]triazolo[4,3-b]pyridazin-6-yl)thio)butanamide]: the IC50 lay within 100 to 1000 nM.
Next, `CCC(Sc1ccc2nnc(-c3ccc(C(F)(F)F)cc3)n2n1)C(=O)O` (stereo not drawn) [Example 53, 2-((3-(4-(trifluoromethyl)phenyl)-[1,2,4]triazolo[4,3-b]pyridazin-6-yl)thio)butanoic acid]: not below 5000 nM.
Turning to `CCC(Sc1ccc2nnc(-c3ccc(F)c(F)c3)n2n1)C(=O)O` (stereo not drawn) [Example 54, 2-((3-(3,4-difluorophenyl)-[1,2,4]triazolo[4,3-b]pyridazin-6-yl)thio)butanoic acid], the IC50 lay in the range of 100 to 1000 nM.
The same measure for `CCC(Sc1ccc2nnc(-c3ccccc3F)n2n1)C(=O)O` (stereo not drawn) [Example 55, 2-((3-(2-fluorophenyl)-[1,2,4]triazolo[4,3-b]pyridazin-6-yl)thio)butanoic acid]: 100 to 1000 nM; for `CCC(Sc1ccc2nnc(-c3cccc(F)c3)n2n1)C(=O)O` (stereo not drawn) [Example 56, 2-((3-(3-fluorophenyl)-[1,2,4]triazolo[4,3-b]pyridazin-6-yl)thio)butanoic acid]: 100 to 1000 nM; for `Cc1ccc(-c2nnc3ccc(SCC(=O)N4CCCCC4)nn23)s1` [Example 57, 2-((3-(5-methylthiophen-2-yl)-[1,2,4]triazolo[4,3-b]pyridazin-6-yl)thio)-1-(piperidin-1-yl)ethanone]: 1000 to 5000 nM.
The same measure for `CCC(Sc1ccc2nnc(-c3cccs3)n2n1)C(=O)N1CCN(C)CC1` (stereo not drawn) [Example 58, 1-(4-methylpiperazin-1-yl)-2-((3-(thiophen-2-yl)-[1,2,4]triazolo[4,3-b]pyridazin-6-yl)thio)butan-1-one]: not below 5000 nM; for `CCC(Sc1ccc2nnc(-c3ccc(C)s3)n2n1)C(=O)N1CCCCC1` (stereo not drawn) [Example 59, 2-((3-(5-methylthiophen-2-yl)-[1,2,4]triazolo[4,3-b]pyridazin-6-yl)thio)-1-(piperidin-1-yl)butan-1-one]: not below 5000 nM; for `CCC(Sc1ccc2nnc(-c3nccs3)n2n1)C(=O)N1CCCCC1` (stereo not drawn) [Example 60, 1-(piperidin-1-yl)-2-((3-(thiazol-2-yl)-[1,2,4]triazolo[4,3-b]pyridazin-6-yl)thio)butan-1-one]: 100 to 1000 nM.
The same measure for `CCC(Sc1ccc2nnc(-c3ccc(Cl)s3)n2n1)C(=O)O` (stereo not drawn) [Example 61, 2-((3-(5-chlorothiophen-2-yl)-[1,2,4]triazolo[4,3-b]pyridazin-6-yl)thio)butanoic acid]: not below 5000 nM; for `CCC(Sc1ccc2nnc(-c3ccc(Cl)s3)n2n1)C(=O)N1CCCCC1` (stereo not drawn) [Example 62, 2-((3-(5-chlorothiophen-2-yl)-[1,2,4]triazolo[4,3-b]pyridazin-6-yl)thio)-1-(piperidin-1-yl)butan-1-one]: 100 to 1000 nM.
As for `CCC(Sc1ccc2nnc(-c3ccc(Cl)s3)n2n1)C(=O)N1CCCC1` (stereo not drawn) [Example 63, 2-((3-(5-chlorothiophen-2-yl)-[1,2,4]triazolo[4,3-b]pyridazin-6-yl)thio)-1-(pyrrolidin-1-yl)butan-1-one], the IC50 fell in the range of 100 to 1000 nM.
The same measure for `CCC(Sc1ccc2nnc(-c3ccsc3)n2n1)C(=O)N1CCCCC1` (stereo not drawn) [Example 64, 1-(piperidin-1-yl)-2-((3-(thiophen-3-yl)-[1,2,4]triazolo[4,3-b]pyridazin-6-yl)thio)butan-1-one]: 100 to 1000 nM; for `CCOC(=O)C(CC)Sc1ccc2nnc(-c3ccc(OC)cc3)n2n1` (stereo not drawn) [Example 65, ethyl 2-((3-(4-methoxyphenyl)-[1,2,4]triazolo[4,3-b]pyridazin-6-yl)thio)butanoate]: not below 5000 nM.
Next, `CCC(Sc1ccc2nnc(-c3ccc(OC)cc3)n2n1)C(N)=O` (stereo not drawn) [Example 66, 2-((3-(4-methoxyphenyl)-[1,2,4]triazolo[4,3-b]pyridazin-6-yl)thio)butanamide]: 100 to 1000 nM; `CCC(Sc1ccc2nnc(-c3ccc(OC)cc3)n2n1)C(=O)N1CCCCC1` (stereo not drawn) [Example 67, 2-((3-(4-methoxyphenyl)-[1,2,4]triazolo[4,3-b]pyridazin-6-yl)thio)-1-(piperidin-1-yl)butan-1-one]: 100 to 1000 nM.
As for `CCOC(=O)C(CC)Sc1ccc2nnc(-c3ccccc3OC)n2n1` (stereo not drawn) [Example 68, ethyl 2-((3-(2-methoxyphenyl)-[1,2,4]triazolo[4,3-b]pyridazin-6-yl)thio)butanoate], the IC50 is not below 5000 nM.
The same measure for `CCC(Sc1ccc2nnc(-c3ccccc3OC)n2n1)C(N)=O` (stereo not drawn) [Example 69, 2-((3-(2-methoxyphenyl)-[1,2,4]triazolo[4,3-b]pyridazin-6-yl)thio)butanamide]: not below 5000 nM; for `CCC(Sc1ccc2nnc(-c3ccccc3OC)n2n1)C(=O)N1CCCCC1` (stereo not drawn) [Example 70, 2-((3-(2-methoxyphenyl)-[1,2,4]triazolo[4,3-b]pyridazin-6-yl)thio)-1-(piperidin-1-yl)butan-1-one]: not below 5000 nM; for `CCOC(=O)C(CC)Sc1ccc2nnc(-c3cccc(OC)c3)n2n1` (stereo not drawn) [Example 71, ethyl 2-((3-(3-methoxyphenyl)-[1,2,4]triazolo[4,3-b]pyridazin-6-yl)thio)butanoate]: 1000 to 5000 nM.
The same measure for `CCC(Sc1ccc2nnc(-c3cccc(OC)c3)n2n1)C(N)=O` (stereo not drawn) [Example 72, 2-((3-(3-methoxyphenyl)-[1,2,4]triazolo[4,3-b]pyridazin-6-yl)thio)butanamide]: 100 to 1000 nM.
Next, `CCC(Sc1ccc2nnc(-c3cccc(OC)c3)n2n1)C(=O)N1CCCCC1` (stereo not drawn) [Example 73, 2-((3-(3-methoxyphenyl)-[1,2,4]triazolo[4,3-b]pyridazin-6-yl)thio)-1-(piperidin-1-yl)butan-1-one]: 100 to 1000 nM.
For the molecule `CCOC(=O)C(CC)Sc1ccc2nnc(-c3ccccc3F)n2n1` (stereo not drawn) [Example 74, ethyl 2-((3-(2-fluorophenyl)-[1,2,4]triazolo[4,3-b]pyridazin-6-yl)thio)butanoate], the IC50 was 1000 to 5000 nM.
The same measure for `CCOC(=O)C(CC)Sc1ccc2nnc(-c3cccc(F)c3)n2n1` (stereo not drawn) [Example 75, ethyl 2-((3-(3-fluorophenyl)-[1,2,4]triazolo[4,3-b]pyridazin-6-yl)thio)butanoate]: 1000 to 5000 nM.
Next, `CCOC(=O)C(CC)Sc1ccc2nnc(-c3ccc(F)c(F)c3)n2n1` (stereo not drawn) [Example 76, ethyl 2-((3-(3,4-difluorophenyl)-[1,2,4]triazolo[4,3-b]pyridazin-6-yl)thio)butanoate]: 1000 to 5000 nM; `CCOC(=O)C(CC)Sc1ccc2nnc(-c3ccc(C(F)(F)F)cc3)n2n1` (stereo not drawn) [Example 77, ethyl 2-((3-(4-(trifluoromethyl)phenyl)-[1,2,4]triazolo[4,3-b]pyridazin-6-yl)thio)butanoate]: not below 5000 nM.
Next, `CCC(Sc1ccc2nnc(-c3ccc(C(F)(F)F)cc3)n2n1)C(N)=O` (stereo not drawn) [Example 78, 2-((3-(4-(trifluoromethyl)phenyl)-[1,2,4]triazolo[4,3-b]pyridazin-6-yl)thio)butanamide]: not below 5000 nM; `CCC(Sc1ccc2nnc(-c3ccc(F)c(F)c3)n2n1)C(N)=O` (stereo not drawn) [Example 79, 2-((3-(3,4-difluorophenyl)-[1,2,4]triazolo[4,3-b]pyridazin-6-yl)thio)butanamide]: 1000 to 5000 nM.
